# In patent US20040254162A1, “Oxazolidinone derivatives as antimicrobials” (priority 2001, published 2004):
# Columns and labels:
# [1] = tested on: Ent. faecalis ATCC 29212; experiment: MIC, agar incorporation method; conditions: agar incorporation
# [2] = tested on: S. pneumoniae; experiment: Summary of in vitro activity (MIC); conditions: S. pneumoniae; for MIC50 / MIC90: Number 19
# [3] = tested on: Strep. pyog. ATCC 19615; experiment: MIC, agar incorporation method; conditions: agar incorporation
# [4] = tested on: MRSA 562; experiment: MIC, agar incorporation method; conditions: for MIC MRSA 562: agar incorporation, Table 1; for MIC: MRSA 562, Table 5
# [5] = tested on: E. faecalis; experiment: Summary of in vitro activity (MIC); conditions: E. faecalis; for MIC50 / MIC90: Number 7
# [6] = tested on: MRSA 33; experiment: MIC, agar incorporation method; conditions: agar incorporation
# [7] = tested on: G +ve bacteria; experiment: Summary of in vitro activity (MIC); conditions: for MIC50 / MIC90: G +ve, Number 49; for Geometric Mean of in vitro activity (MIC): Gram + ve
# [8] = tested on: S. pneum AB 34; experiment: MIC, agar incorporation method; conditions: agar incorporation
# [9] = tested on: MRSA 15187; experiment: MIC, agar incorporation method; conditions: agar incorporation
# [10] = tested on: S. aureus; experiment: Summary of in vitro activity (MIC); conditions: S. aureus; for MIC50 / MIC90: Number 8
# [11] = tested on: S. aureus ATCC 25923; experiment: MIC, agar incorporation method; conditions: agar incorporation
# [12] = tested on: VRE 6A (Ent. faecium 6A); experiment: MIC, agar incorporation method; conditions: agar incorporation
# [13] = tested on: MRSA 562; experiment: In vivo activity against MRSA 562 (ED50); parameters: species or system Methicillin Resistant Staphylococcus aureus; conditions: PO; MRSA 562 infection
# [14] = tested on: Strep. pne. ATCC 6303; experiment: MIC, agar incorporation method; conditions: agar incorporation
MIC E. faecalis 29212 [1] [µg/mL],Geometric Mean of in vitro activity (MIC) [2] [µg/mL],MIC50 [2] [µg/mL],MIC90 [2] [µg/mL],MIC S. pyogenes 19615 [3] [µg/mL],MIC MRSA 562 [4] [µg/mL],MIC MRSA 33 [6] [µg/mL],MIC50 [7] [µg/mL],MIC90 [7] [µg/mL],Geometric Mean of in vitro activity (MIC) [7] [µg/mL],MIC S. pneum AB 34 [8] [µg/mL],MIC MRSA 15187 [9] [µg/mL],MIC S. aureus 25923 [11] [µg/mL],MIC VRE 6A [12] [µg/mL],MIC S. pneum 6303 [14] [µg/mL],MIC [4] [µg/mL],Compound,ED50 (mg/kg body weight) PO [13] [mg/kg body weight],other results
2,–,–,–,2,–,2,–,–,–,1,2,2,1,1,–,CC(=O)NC[C@H]1CN(c2ccc(N3CCN(C(=O)c4ccc(Br)o4)CC3)c(F)c2)C(=O)O1 [Compound No. 04],>25,–
0.5,1.41,1,2,0.125,0.5,1,1,2,0.72,2,1,1,0.25,0.5,0.5,"CC(=O)NC[C@H]1CN(c2ccc(N3CCC(N(C)Cc4ccc([N+](=O)[O-])o4)CC3)c(F)c2)C(=O)O1 [Compound No. 50, (S)-N-[[3-[4-[4-(N-methyl-N-2-furyl(5-nitro)methyl)aminopiperidine-1-yl]-3-fluorophenyl]-2-oxo-oxazolidin-5-yl]methyl]acetamide]",–,Geometric Mean of in vitro activity (MIC) [5]: 0.42 µg/mL; MIC50 [5]: 0.5 µg/mL; MIC90 [5]: 1 µg/mL; Geometric Mean of in vitro activity (MIC) [10]: 1 µg/mL; MIC50 [10]: 1 µg/mL; MIC90 [10]: 2 µg/mL
–,–,–,–,–,–,–,–,–,–,–,–,–,–,–,2,CC(=O)NC[C@H]1CN(c2ccc(N3CCN(Cc4ccc(NC=O)o4)CC3)c(F)c2)C(=O)O1 [Compound No. 67],>25,–
8,–,–,–,8,1,2,–,–,–,8,2,2,8,8,–,"CC(=O)NC[C@H]1CN(c2ccc(N3CCN(Cc4ccc(C=NN)o4)CC3)c(F)c2)C(=O)O1 [Compound No. 62, (S)-N-[[3-[3-Fluoro-4[N-1-[4-{2-furyl-(5-hydrazone)-methyl}]-piperazinyl]-phenyl]-2-oxo-5-oxazolidinyl]-methyl]acetamide]",–,–
2,–,–,–,0.5,2,2,–,–,–,2,2,2,2,2,2,"CC(=O)NC[C@H]1CN(c2ccc(N3CCN(C(=O)C(=O)c4cccs4)CC3)c(F)c2)C(=O)O1 [Compound No. 07, (S)-N[[3-[3-Fluoro-4-[N-1[4-{2-(2-thienyl)dicarbonyl}]piperazinyl]phenyl]2-oxo-5-oxazolidinyl]methyl]acetamide]",>25,–

# Further lines, the molecule ahead of its results:
Compound,MIC E. faecalis 29212 [1] [µg/mL],Geometric Mean of in vitro activity (MIC) [2] [µg/mL],MIC50 [2] [µg/mL],MIC90 [2] [µg/mL],MIC S. pyogenes 19615 [3] [µg/mL],MIC MRSA 562 [4] [µg/mL],MIC MRSA 33 [6] [µg/mL],MIC50 [7] [µg/mL],MIC90 [7] [µg/mL],Geometric Mean of in vitro activity (MIC) [7] [µg/mL],MIC S. pneum AB 34 [8] [µg/mL],MIC MRSA 15187 [9] [µg/mL],MIC S. aureus 25923 [11] [µg/mL],MIC VRE 6A [12] [µg/mL],MIC S. pneum 6303 [14] [µg/mL],MIC [4] [µg/mL],ED50 (mg/kg body weight) PO [13] [mg/kg body weight],other results
"CC(=O)NC[C@H]1CN(c2ccc(N3CC4C(CN(C)Cc5ccc([N+](=O)[O-])o5)C4C3)c(F)c2)C(=O)O1 (stereo partly drawn) [Compound No. 40, (S)-N-[[3-[3-Fluoro[4-[3-(1α,5α,6α)-6-[N-(5-nitro-2-furylmethyl)-N-methyl]amino-methyl]-3-azabicyclo-[3.1.0]hexane]phenyl]-2-oxo-5-oxazolidinyl]methyl]acetamide]",2,0.71,1,1,0.125,1,2,1,2,0.93,2,2,2,4,–,–,–,Geometric Mean of in vitro activity (MIC) [5]: 2.38 µg/mL; MIC50 [5]: 2 µg/mL; MIC90 [5]: 4 µg/mL; Geometric Mean of in vitro activity (MIC) [10]: 1.83 µg/mL; MIC50 [10]: 2 µg/mL; MIC90 [10]: 4 µg/mL
"CC1(C)S[C@@H]2[C@H](NC(=O)Cc3ccccc3)C(=O)N2[C@H]1C(=O)O [Penicillin G, reference compound]",–,2.16,4,32,–,–,–,4,32,0.76,–,–,–,–,–,–,–,–
"CC(=O)NC[C@H]1CN(c2ccc(N3C[C@@H]4[C@H](C3)[C@H]4N(C)Cc3ccc([N+](=O)[O-])s3)c(F)c2)C(=O)O1 [Compound No. 34, (S)-N-[[3-[3-Fluoro[4-[3-(1α,5α,6α)-6-[N-(5-nitro-2-thienylmethyl)-N-methyl]-amino]-3-azabicyclo-[3.1.0]hexane]phenyl]-2-oxo-5-oxazolidinyl]methyl]acetamide]",1,–,–,–,2,1,1,–,–,–,4,1,1,1,4,–,–,–
"CC(=O)NC[C@H]1CN(c2ccc(N3CC4C(CN(C)Cc5ccc([N+](=O)[O-])s5)C4C3)c(F)c2)C(=O)O1 (stereo partly drawn) [Compound No. 39, (S)-N-[[3-[3-Fluoro[4-[3-(1α,5α,6α)-6-[N-(5-nitro-2-thienylmethyl)-N-methyl]-amino-methyl]-3-azabicyclo-[3.1.0]hexane]phenyl]-2-oxo-5-oxazolidinyl]methyl]acetamide]",2,–,–,–,0.5,8,4,–,–,–,0.5,8,8,8,0.5,–,–,–
